Experiments:
[1] = target: T1, Caspase-7 (Homo sapiens, UniProt P55210); test: Inhibition of human recombinant caspase 7
T1 sequence (P55210 whole entry): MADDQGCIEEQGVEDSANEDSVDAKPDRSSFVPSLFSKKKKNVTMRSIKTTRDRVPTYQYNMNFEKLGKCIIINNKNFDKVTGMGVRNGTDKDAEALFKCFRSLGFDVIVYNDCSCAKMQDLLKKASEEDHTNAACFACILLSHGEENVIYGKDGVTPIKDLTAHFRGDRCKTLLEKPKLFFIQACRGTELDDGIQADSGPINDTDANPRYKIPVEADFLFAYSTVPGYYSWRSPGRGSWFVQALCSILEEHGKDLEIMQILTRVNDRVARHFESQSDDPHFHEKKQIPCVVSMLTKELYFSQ

[2] = target: T2, Caspase-3 (Homo sapiens, UniProt P42574); test: Inhibition of human recombinant caspase 3
T2 sequence (P42574 whole entry): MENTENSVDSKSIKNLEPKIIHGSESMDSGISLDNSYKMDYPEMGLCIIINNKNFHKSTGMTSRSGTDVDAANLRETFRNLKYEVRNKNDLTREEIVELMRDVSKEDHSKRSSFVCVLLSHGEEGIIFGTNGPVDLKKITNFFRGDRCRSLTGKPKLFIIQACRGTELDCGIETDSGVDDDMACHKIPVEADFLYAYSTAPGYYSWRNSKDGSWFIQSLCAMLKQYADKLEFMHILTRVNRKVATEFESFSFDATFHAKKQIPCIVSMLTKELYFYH

IC50 [1] [nM]	IC50 [2] [nM]	SMILES
58	5.3	CCCN1C(=O)C(=O)c2cc(S(=O)(=O)N3CCC[C@H]3COC)ccc21
113000		COC[C@@H]1CCCN1S(=O)(=O)c1ccc2c(c1)C(=O)C(=O)N2CCCOCCCO
319	183	CCN1C(=O)C(=O)c2cc(S(=O)(=O)N3CCC[C@H]3COC)ccc21
28	41	COC[C@@H]1CCCN1S(=O)(=O)c1ccc2c(c1)C(=O)C(=O)N2CCCCF
170		COC[C@@H]1CCCN1S(=O)(=O)c1ccc2c(c1)C(=O)C(=O)N2
> 100000	> 100000	COC[C@@H]1CCCN1S(=O)(=O)c1ccc2c(c1)C(=O)C(=O)N2CCCOCCCOS(C)(=O)=O
> 100000	> 100000	COC[C@@H]1CCCN1S(=O)(=O)c1ccc2c(c1)C(=O)C(=O)N2CCCOCCCF
> 100000	> 100000	CCCN1C(=O)C(F)(F)c2cc(S(=O)(=O)N3CCC[C@H]3COC)ccc21
8.1	29	CCCCN1C(=O)C(=O)c2cc(S(=O)(=O)N3CCC[C@H]3COC)ccc21
